Some test systems named below: MALME-3M melanoma; KM12 colon; HOP-92 NSCLC; COLO 205 colon; SW-620 colon; MOLT-4 leukemia; HCT-15 colon; EKVX NSCLC; UACC-62 melanoma.
What all share (test): NCI-60 cell line screen, 48 h

SMILES strings stand for the structures.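 Method: 48-hour compound exposure of cells in 96-well plates, five concentrations, linear interpolation of endpoints. GI50 marks 50% less growth. TGI: concentration producing complete growth inhibition.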

For `COc1c2c(cc3nc4ccccc4nc13)CCC(C(C)(C)O)C2` (configuration not stated), the TGI in the experiment on MALME-3M melanoma, in the experiment on KM12 colon, in the experiment with HOP-92 NSCLC, in the experiment with COLO 205 colon, in the experiment with SW-620 colon and in the experiment with MOLT-4 leukemia was more than 100 µM each time. The TGI in the experiment with HCT-15 colon, with EKVX NSCLC and in the experiment with UACC-62 melanoma was more than 100 µM throughout.
Turning to `COc1cc(OC(=O)c2c(O)cc(O)c(O)c2C)cc(C)c1C(=O)Oc1cc(C)c(C(=O)O)c(O)c1`, the TGI with MALME-3M melanoma, in the experiment on KM12 colon, in the experiment on HOP-92 NSCLC, in the experiment with COLO 205 colon, with SW-620 colon and in the experiment with MOLT-4 leukemia was more than 100 µM in each case. Also, the TGI in the experiment on HCT-15 colon, in the experiment on EKVX NSCLC and in the experiment with UACC-62 melanoma was more than 100 µM throughout.
In the case of `Nc1ccc(/C=C/c2ccnc3ccccc23)cc1`, the TGI in the experiment on MALME-3M melanoma amounted to 97.3 µM; in the experiment on KM12 colon, 49.3 µM; with HOP-92 NSCLC it was 50.9 µM; in the experiment with COLO 205 colon it was 48.6 µM; in the experiment with SW-620 colon it was 97.7 µM; with MOLT-4 leukemia, 38.7 µM. For the same compound, the TGI in the experiment on HCT-15 colon is more than 100 µM; in the experiment on UACC-62 melanoma, 56.9 µM.
Turning to `NC(CC(=O)OCc1ccccc1)C(=O)OCc1ccccc1` (configuration not stated), the TGI in the experiment with KM12 colon, with COLO 205 colon, in the experiment with SW-620 colon, with HCT-15 colon, in the experiment on EKVX NSCLC and in the experiment with UACC-62 melanoma was more than 100 µM each time.
In the case of `CC(C)N(C(=O)C12CC3CC(CC(C3)C1)C2)C(C)C`, the TGI in the experiment with MALME-3M melanoma, in the experiment with KM12 colon, in the experiment on HOP-92 NSCLC, with COLO 205 colon, in the experiment with SW-620 colon and in the experiment on MOLT-4 leukemia was more than 50 µM each time. The TGI in the experiment on HCT-15 colon, in the experiment with EKVX NSCLC and with UACC-62 melanoma was more than 50 µM each time.
`CC(=O)[CH-]C(=O)c1ccccc1.CC(=O)[CH-]C(=O)c1ccccc1.O=C([O-])c1ccc([O-])cc1.O=C([O-])c1ccc([O-])cc1.[Ti+4]`: the GI50 with MALME-3M melanoma is 23.6 µM; in the experiment on KM12 colon, 25 µM; with COLO 205 colon, 20.6 µM; in the experiment on SW-620 colon, 43 µM; in the experiment on MOLT-4 leukemia it was 23.8 µM; in the experiment on HCT-15 colon, 56.6 µM. Further, the GI50 is 23.9 µM in the experiment with EKVX NSCLC and 37.2 µM in the experiment on UACC-62 melanoma. In addition, the TGI in the experiment on MALME-3M melanoma is 66.8 µM; with KM12 colon it was 90.1 µM; in the experiment on COLO 205 colon it was 40.1 µM; in the experiment with SW-620 colon it was more than 100 µM; in the experiment with MOLT-4 leukemia it was 79.3 µM; with HCT-15 colon it was more than 100 µM. Further, the TGI was 79.6 µM in the experiment with EKVX NSCLC and more than 100 µM in the experiment on UACC-62 melanoma.
As to `C=CCCCCCCCCC(=O)NS(=O)(=O)c1ccccc1`, the TGI in the experiment on MALME-3M melanoma, with KM12 colon, in the experiment with HOP-92 NSCLC, in the experiment with COLO 205 colon, with SW-620 colon and in the experiment on MOLT-4 leukemia was more than 100 µM each time. Moreover, the TGI in the experiment with EKVX NSCLC and in the experiment on UACC-62 melanoma was more than 100 µM each time.
Consider `N#Cc1nc(C2OC(COC(=O)c3ccccc3)C(OC(=O)c3ccccc3)C2OC(=O)c2ccccc2)oc1N` (configuration not stated), for which the TGI in the experiment with MALME-3M melanoma, in the experiment on KM12 colon, in the experiment with HOP-92 NSCLC, in the experiment with COLO 205 colon, in the experiment on SW-620 colon and in the experiment with MOLT-4 leukemia was more than 100 µM each time. Also, the TGI in the experiment on HCT-15 colon, with EKVX NSCLC and in the experiment with UACC-62 melanoma was more than 100 µM in each case.
Turning to `COC(=O)c1cc(Br)c(Br)n1C`, the TGI in the experiment with MALME-3M melanoma, with KM12 colon, in the experiment with HOP-92 NSCLC, in the experiment with COLO 205 colon, in the experiment on SW-620 colon and in the experiment on MOLT-4 leukemia was more than 100 µM in each case. In addition, the TGI in the experiment with EKVX NSCLC and in the experiment with UACC-62 melanoma was more than 100 µM throughout.
Take `N.N.N.N.N.O=C([O-])c1nn[n-]n1.[Cl-].[Co+3]`: the GI50 in the experiment with MALME-3M melanoma, in the experiment with KM12 colon, with HOP-92 NSCLC, in the experiment on COLO 205 colon, in the experiment with SW-620 colon and with MOLT-4 leukemia was more than 100 µM throughout. Also, the GI50 with HCT-15 colon, in the experiment with EKVX NSCLC and in the experiment on UACC-62 melanoma was more than 100 µM in each case. For the same compound, the TGI with MALME-3M melanoma, with KM12 colon, in the experiment with HOP-92 NSCLC, with COLO 205 colon, in the experiment with SW-620 colon and in the experiment on MOLT-4 leukemia was more than 100 µM each time. The TGI with HCT-15 colon, in the experiment on EKVX NSCLC and in the experiment on UACC-62 melanoma was more than 100 µM throughout.
Consider `CC1=C(C)CC2(CCCCC2=O)S(=O)C1` (configuration not stated), for which the TGI in the experiment with MALME-3M melanoma, in the experiment on KM12 colon, in the experiment with HOP-92 NSCLC, with COLO 205 colon, with SW-620 colon and in the experiment on MOLT-4 leukemia was more than 100 µM throughout. Besides, the TGI in the experiment on HCT-15 colon, with EKVX NSCLC and in the experiment on UACC-62 melanoma was more than 100 µM in each case.
As to `Cc1ccc2nc3c(C(=O)NCCN(C)C)cccc3nc2c1`, the TGI with MALME-3M melanoma is 8.37 µM; with KM12 colon it was 20.2 µM; with HOP-92 NSCLC, more than 22.4 µM; with COLO 205 colon, more than 22.4 µM; in the experiment on SW-620 colon it was more than 35.7 µM; in the experiment on MOLT-4 leukemia, 6.29 µM. Further, the TGI in the experiment on HCT-15 colon amounted to 18 µM; with EKVX NSCLC, 24.2 µM; with UACC-62 melanoma it was 16.8 µM.
For the compound `Cc1ccc(N(C(=O)CC(=O)NN)C(=O)c2ccccc2Cl)cc1`, the TGI in the experiment on MALME-3M melanoma, in the experiment with KM12 colon, in the experiment on HOP-92 NSCLC, in the experiment on COLO 205 colon, in the experiment with SW-620 colon and in the experiment on MOLT-4 leukemia was more than 100 µM throughout. Moreover, the TGI in the experiment on HCT-15 colon, with EKVX NSCLC and in the experiment with UACC-62 melanoma was more than 100 µM each time.
